ChEMBL document CHEMBL4507324 (2021)

Experiments:
Conditions in all cases: Compound concentration 100.0 nM
[1] = target: Protein kinase C epsilon type (Homo sapiens) (UniProt Q02156)
[2] = target: Myosin-IIIb (Homo sapiens) (UniProt Q8WXR4)
[3] = target: Ephrin type-A receptor 4 (Homo sapiens) (UniProt P54764)
[4] = target: Mitogen-activated protein kinase kinase kinase 15 (Homo sapiens) (UniProt Q6ZN16)
[5] = target: Cyclin-dependent kinase 16 (Homo sapiens) (UniProt Q00536)
[6] = target: Tyrosine-protein kinase JAK1 (Homo sapiens) (UniProt P23458)
[7] = target: Ephrin type-B receptor 1 (Homo sapiens) (UniProt P54762)
[8] = target: Mitogen-activated protein kinase 6 (Homo sapiens) (UniProt Q16659)
[9] = target: Interleukin-1 receptor-associated kinase 4 (Homo sapiens) (UniProt Q9NWZ3)
Interleukin-1 receptor-associated kinase 4 (Homo sapiens), sequence (Q9NWZ3 whole entry): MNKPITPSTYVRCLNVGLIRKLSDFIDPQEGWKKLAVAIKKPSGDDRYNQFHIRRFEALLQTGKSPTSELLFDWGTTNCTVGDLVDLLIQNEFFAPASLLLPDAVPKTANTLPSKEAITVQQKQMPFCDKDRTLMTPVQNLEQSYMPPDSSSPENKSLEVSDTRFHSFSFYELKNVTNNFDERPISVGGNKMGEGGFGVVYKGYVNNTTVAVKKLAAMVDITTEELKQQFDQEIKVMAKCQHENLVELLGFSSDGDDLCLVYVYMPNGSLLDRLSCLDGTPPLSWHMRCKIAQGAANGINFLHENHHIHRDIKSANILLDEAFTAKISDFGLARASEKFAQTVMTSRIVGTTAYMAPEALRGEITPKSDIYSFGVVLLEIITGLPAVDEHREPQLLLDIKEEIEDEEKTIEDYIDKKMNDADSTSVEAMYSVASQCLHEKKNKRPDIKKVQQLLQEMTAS

[10] = target: Cyclin-dependent kinase 9 (Homo sapiens) (UniProt P50750)
[11] = tested on: Tyrosine-protein kinase ABL1 (Homo sapiens), P00519 [Y253F]
[12] = target: Mitogen-activated protein kinase kinase kinase 2 (Homo sapiens) (UniProt Q9Y2U5)
Mitogen-activated protein kinase kinase kinase 2 (Homo sapiens), sequence (Q9Y2U5 whole entry): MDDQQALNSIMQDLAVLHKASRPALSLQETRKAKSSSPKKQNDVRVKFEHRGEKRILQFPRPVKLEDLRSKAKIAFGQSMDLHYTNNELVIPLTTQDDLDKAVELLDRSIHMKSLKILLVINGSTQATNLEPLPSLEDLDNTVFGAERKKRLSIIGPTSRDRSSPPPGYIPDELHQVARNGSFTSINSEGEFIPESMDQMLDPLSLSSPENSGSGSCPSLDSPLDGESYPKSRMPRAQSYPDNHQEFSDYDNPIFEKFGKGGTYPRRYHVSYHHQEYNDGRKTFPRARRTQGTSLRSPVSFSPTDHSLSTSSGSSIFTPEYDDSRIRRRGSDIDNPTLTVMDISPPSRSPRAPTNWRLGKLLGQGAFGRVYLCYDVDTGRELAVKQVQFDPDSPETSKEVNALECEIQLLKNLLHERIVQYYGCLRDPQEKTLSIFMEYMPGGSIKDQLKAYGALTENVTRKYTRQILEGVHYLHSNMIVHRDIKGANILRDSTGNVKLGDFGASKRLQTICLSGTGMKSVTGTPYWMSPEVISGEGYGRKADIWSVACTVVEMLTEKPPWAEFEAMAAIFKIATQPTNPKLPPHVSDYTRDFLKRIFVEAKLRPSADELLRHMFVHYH

[13] = tested on: Epidermal growth factor receptor (Homo sapiens), P00533 [L861Q]
[14] = target: Calcium/calmodulin-dependent protein kinase type 1D (Homo sapiens) (UniProt Q8IU85)
[15] = target: Mitogen-activated protein kinase 10 (Homo sapiens) (UniProt P53779)
[16] = tested on: Tyrosine-protein kinase ABL1 (Homo sapiens), P00519 [F317I]
[17] = target: Serine/threonine-protein kinase 24 (Homo sapiens) (UniProt Q9Y6E0)
[18] = target: Phosphatidylinositol 4,5-bisphosphate 3-kinase catalytic subunit alpha isoform (Homo sapiens) (UniProt P42336)
[19] = target: cGMP-dependent protein kinase 2 (Homo sapiens) (UniProt Q13237)
[20] = target: Serine/threonine-protein kinase RIO1 (Homo sapiens) (UniProt Q9BRS2)
[21] = target: Peripheral plasma membrane protein CASK (Homo sapiens) (UniProt O14936)
Peripheral plasma membrane protein CASK (Homo sapiens), sequence (O14936 whole entry): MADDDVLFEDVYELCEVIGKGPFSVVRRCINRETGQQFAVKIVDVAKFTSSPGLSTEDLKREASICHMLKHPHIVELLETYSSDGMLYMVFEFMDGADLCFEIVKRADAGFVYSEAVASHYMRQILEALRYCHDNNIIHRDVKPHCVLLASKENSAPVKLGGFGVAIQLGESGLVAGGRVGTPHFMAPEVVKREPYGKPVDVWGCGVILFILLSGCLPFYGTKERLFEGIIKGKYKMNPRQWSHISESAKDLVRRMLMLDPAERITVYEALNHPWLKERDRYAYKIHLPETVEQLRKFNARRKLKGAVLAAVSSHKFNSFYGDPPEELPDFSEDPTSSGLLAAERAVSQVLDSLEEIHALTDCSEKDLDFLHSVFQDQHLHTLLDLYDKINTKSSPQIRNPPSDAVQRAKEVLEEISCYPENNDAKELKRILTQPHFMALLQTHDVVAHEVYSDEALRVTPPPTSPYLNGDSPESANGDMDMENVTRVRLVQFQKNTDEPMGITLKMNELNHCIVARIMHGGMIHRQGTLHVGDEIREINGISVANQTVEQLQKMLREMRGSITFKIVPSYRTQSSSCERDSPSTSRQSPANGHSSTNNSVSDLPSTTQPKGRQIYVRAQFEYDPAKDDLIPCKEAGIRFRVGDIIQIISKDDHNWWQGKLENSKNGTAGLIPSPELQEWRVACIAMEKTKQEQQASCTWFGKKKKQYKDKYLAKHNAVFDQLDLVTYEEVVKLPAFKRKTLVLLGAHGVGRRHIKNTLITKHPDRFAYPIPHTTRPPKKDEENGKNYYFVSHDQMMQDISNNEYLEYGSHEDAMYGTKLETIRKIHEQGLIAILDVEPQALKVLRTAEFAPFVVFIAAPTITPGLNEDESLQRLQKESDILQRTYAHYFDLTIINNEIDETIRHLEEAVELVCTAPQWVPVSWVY

[22] = target: Uncharacterized serine/threonine-protein kinase SBK3 (Homo sapiens) (UniProt P0C264)
Uncharacterized serine/threonine-protein kinase SBK3 (Homo sapiens), sequence (P0C264 whole entry): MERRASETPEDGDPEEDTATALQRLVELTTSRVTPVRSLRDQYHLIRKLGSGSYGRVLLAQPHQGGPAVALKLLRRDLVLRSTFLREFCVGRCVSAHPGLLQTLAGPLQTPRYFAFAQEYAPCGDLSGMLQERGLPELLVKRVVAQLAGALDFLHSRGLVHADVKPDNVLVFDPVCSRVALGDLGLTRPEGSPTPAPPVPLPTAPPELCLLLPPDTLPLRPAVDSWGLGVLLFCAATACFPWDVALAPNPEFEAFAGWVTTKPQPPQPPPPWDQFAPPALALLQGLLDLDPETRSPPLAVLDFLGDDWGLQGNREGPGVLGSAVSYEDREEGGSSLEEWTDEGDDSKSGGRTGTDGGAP

[23] = target: Calcium-dependent protein kinase 1 (Plasmodium falciparum) (UniProt P62344)
[24] = target: TGF-beta receptor type-1 (Homo sapiens) (UniProt P36897)
TGF-beta receptor type-1 (Homo sapiens), sequence (P36897 whole entry): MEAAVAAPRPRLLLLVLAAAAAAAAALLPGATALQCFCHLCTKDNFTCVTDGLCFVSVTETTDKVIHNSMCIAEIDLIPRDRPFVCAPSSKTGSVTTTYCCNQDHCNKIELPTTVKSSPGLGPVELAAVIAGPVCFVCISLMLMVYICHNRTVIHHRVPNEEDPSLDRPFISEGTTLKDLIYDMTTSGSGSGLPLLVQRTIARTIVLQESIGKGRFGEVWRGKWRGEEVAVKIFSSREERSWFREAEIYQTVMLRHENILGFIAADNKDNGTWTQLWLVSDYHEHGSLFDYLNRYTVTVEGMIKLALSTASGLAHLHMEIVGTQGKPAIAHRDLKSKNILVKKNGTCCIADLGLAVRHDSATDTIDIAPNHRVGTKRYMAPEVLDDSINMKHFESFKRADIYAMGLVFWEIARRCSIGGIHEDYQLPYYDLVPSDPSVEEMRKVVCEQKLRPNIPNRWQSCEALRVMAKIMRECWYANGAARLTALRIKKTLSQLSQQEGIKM

[25] = target: Phosphatidylinositol 5-phosphate 4-kinase type-2 beta (Homo sapiens) (UniProt P78356)
[26] = target: Serine/threonine-protein kinase NLK (Homo sapiens) (UniProt Q9UBE8)
[27] = target: Serine/threonine-protein kinase PAK 4 (Homo sapiens) (UniProt O96013)
[28] = target: Cyclin-dependent kinase 5 (Homo sapiens) (UniProt Q00535)
[29] = target: Phosphorylase b kinase regulatory subunit alpha, liver isoform (Homo sapiens) (UniProt P46019)
[30] = target: Glycogen synthase kinase-3 beta (Homo sapiens) (UniProt P49841)
Glycogen synthase kinase-3 beta (Homo sapiens), sequence (P49841 whole entry, looked up): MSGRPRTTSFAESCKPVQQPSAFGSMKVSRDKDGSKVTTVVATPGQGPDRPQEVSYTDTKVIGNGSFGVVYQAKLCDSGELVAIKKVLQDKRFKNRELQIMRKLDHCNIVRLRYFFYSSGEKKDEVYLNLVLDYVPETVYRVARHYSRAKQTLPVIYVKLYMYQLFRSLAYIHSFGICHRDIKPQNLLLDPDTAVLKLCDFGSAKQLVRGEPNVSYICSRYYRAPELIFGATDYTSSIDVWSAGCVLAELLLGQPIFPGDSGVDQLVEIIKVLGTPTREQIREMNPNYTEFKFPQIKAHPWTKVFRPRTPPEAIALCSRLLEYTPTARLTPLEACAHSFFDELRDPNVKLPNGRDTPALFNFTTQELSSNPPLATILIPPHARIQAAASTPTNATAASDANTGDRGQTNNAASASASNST

[31] = target: MAP/microtubule affinity-regulating kinase 4 (Homo sapiens) (UniProt Q96L34)
[32] = target: Platelet-derived growth factor receptor beta (Homo sapiens) (UniProt P09619)
[33] = tested on: Phosphatidylinositol 4,5-bisphosphate 3-kinase catalytic subunit alpha isoform (Homo sapiens), P42336 [Q546K]
[34] = target: Cyclin-dependent kinase 13 (Homo sapiens) (UniProt Q14004)
[35] = target: Dual specificity tyrosine-phosphorylation-regulated kinase 1A (Homo sapiens) (UniProt Q13627)
[36] = target: Myotonin-protein kinase (Homo sapiens) (UniProt Q09013)
[37] = target: Interleukin-1 receptor-associated kinase 3 (Homo sapiens) (UniProt Q9Y616)
[38] = target: Mitogen-activated protein kinase 15 (Homo sapiens) (UniProt Q8TD08)
Mitogen-activated protein kinase 15 (Homo sapiens), sequence (Q8TD08 whole entry): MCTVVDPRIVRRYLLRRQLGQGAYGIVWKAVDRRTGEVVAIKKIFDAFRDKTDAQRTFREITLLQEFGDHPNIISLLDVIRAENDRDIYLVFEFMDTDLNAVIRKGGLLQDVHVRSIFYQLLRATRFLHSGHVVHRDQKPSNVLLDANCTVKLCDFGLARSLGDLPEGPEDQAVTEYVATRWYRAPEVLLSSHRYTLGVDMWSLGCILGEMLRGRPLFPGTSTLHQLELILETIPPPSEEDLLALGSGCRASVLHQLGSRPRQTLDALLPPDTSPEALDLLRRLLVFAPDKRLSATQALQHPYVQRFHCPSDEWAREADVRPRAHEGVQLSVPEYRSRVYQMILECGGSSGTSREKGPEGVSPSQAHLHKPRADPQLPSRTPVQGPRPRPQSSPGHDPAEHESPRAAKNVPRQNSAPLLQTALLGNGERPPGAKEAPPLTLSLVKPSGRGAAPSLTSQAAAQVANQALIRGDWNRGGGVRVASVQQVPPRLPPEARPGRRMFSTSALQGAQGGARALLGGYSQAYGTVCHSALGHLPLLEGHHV

[39] = target: Serine/threonine-protein kinase PLK3 (Homo sapiens) (UniProt Q9H4B4)
[40] = target: Protein kinase C iota type (Homo sapiens) (UniProt P41743)
[41] = target: SRSF protein kinase 2 (Homo sapiens) (UniProt P78362)
[42] = target: Vascular endothelial growth factor receptor 3 (Homo sapiens) (UniProt P35916)
[43] = target: cAMP-dependent protein kinase catalytic subunit beta (Homo sapiens) (UniProt P22694)
[44] = target: Cyclin-dependent kinase 4 (Homo sapiens) (UniProt P11802)
[45] = target: Calcium/calmodulin-dependent protein kinase type 1 (Homo sapiens) (UniProt Q14012)
Calcium/calmodulin-dependent protein kinase type 1 (Homo sapiens), sequence (Q14012 whole entry, looked up): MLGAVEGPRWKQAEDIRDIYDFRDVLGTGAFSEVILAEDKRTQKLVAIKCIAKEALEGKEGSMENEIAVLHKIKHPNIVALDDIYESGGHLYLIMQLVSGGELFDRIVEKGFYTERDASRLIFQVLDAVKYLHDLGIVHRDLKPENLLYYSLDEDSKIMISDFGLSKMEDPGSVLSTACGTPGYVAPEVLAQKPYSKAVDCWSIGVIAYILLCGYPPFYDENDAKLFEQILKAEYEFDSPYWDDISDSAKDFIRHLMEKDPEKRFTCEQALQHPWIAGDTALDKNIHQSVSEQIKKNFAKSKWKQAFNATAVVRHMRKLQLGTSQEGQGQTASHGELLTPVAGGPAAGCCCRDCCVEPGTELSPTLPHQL

Protein kinase C epsilon type (Homo sapiens), sequence (Q02156 whole entry): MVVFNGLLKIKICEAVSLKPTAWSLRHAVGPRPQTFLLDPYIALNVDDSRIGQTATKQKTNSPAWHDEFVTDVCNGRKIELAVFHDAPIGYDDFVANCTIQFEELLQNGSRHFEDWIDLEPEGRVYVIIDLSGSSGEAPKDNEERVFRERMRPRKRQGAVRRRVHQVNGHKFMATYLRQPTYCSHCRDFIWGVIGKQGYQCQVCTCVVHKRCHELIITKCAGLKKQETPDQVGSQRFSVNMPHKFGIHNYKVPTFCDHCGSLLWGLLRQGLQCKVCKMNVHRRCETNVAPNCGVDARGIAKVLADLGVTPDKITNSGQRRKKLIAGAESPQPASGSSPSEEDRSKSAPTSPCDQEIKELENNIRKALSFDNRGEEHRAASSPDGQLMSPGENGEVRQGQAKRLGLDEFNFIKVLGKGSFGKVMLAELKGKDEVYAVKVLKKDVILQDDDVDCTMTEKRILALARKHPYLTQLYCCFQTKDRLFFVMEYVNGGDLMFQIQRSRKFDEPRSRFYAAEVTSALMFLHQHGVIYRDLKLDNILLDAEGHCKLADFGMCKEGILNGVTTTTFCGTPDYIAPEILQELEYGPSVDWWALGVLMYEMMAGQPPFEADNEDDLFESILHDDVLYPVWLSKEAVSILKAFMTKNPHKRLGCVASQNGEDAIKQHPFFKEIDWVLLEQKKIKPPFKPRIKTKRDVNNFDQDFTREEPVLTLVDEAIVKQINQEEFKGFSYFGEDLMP

## CS(=O)(=O)N1CCCC(NC(=O)[C@H](CCC2CCCCC2)NC(=O)c2ccc(CNc3ncnc4c3nnn4-c3ccccc3)cc2)C1 (stereo not given in full) [SR-301]
[1]
  residual activity: 63%
[2]
  residual activity: 100%
[3]
  residual activity: 76%
[4]
  residual activity: 74%
[5]
  residual activity: 100%
[6]
  residual activity: 100%
[7]
  residual activity: 100%
[8]
  residual activity: 94%
[9]
  residual activity: 100%
[10]
  residual activity: 87%
[11]
  residual activity: 84%
[12]
  residual activity: 100%
[13]
  residual activity: 100%
[14]
  residual activity: 97%
[15]
  residual activity: 100%
[16]
  residual activity: 88%
[17]
  residual activity: 100%
[18]
  residual activity: 98%
[19]
  residual activity: 79%
[20]
  residual activity: 54%
[21]
  residual activity: 100%
[22]
  residual activity: 100%
[23]
  residual activity: 100%
[24]
  residual activity: 100%
[25]
  residual activity: 100%
[26]
  residual activity: 100%
[27]
  residual activity: 100%
[28]
  residual activity: 94%
[29]
  residual activity: 100%
[30]
  residual activity: 100%
[31]
  residual activity: 71%
[32]
  residual activity: 86%
[33]
  residual activity: 60%
[34]
  residual activity: 100%
[35]
  residual activity: 87%
[36]
  residual activity: 100%
[37]
  residual activity: 100%
[38]
  residual activity: 100%
[39]
  residual activity: 100%
[40]
  residual activity: 100%
[41]
  residual activity: 34%
[42]
  residual activity: 81%
[43]
  residual activity: 92%
[44]
  residual activity: 100%
[45]
  residual activity: 96%

## CS(=O)(=O)N1CCCC(NC(=O)[C@H](CCC2CCCCC2)NC(=O)c2ccc(CNC(=O)c3cnc4ccccn34)cc2)C1 (stereo not given in full) [SR-302]
[1]
  residual activity: 83%
[2]
  residual activity: 89%
[3]
  residual activity: 98%
[4]
  residual activity: 100%
[5]
  residual activity: 100%
[6]
  residual activity: 64%
[7]
  residual activity: 89%
[8]
  residual activity: 96%
[9]
  residual activity: 100%
[10]
  residual activity: 100%
[11]
  residual activity: 76%
[12]
  residual activity: 100%
[13]
  residual activity: 100%
[14]
  residual activity: 88%
[15]
  residual activity: 85%
[16]
  residual activity: 80%
[17]
  residual activity: 95%
[18]
  residual activity: 86%
[19]
  residual activity: 82%
[20]
  residual activity: 73%
[21]
  residual activity: 100%
[22]
  residual activity: 66%
[23]
  residual activity: 78%
[24]
  residual activity: 84%
[25]
  residual activity: 100%
[26]
  residual activity: 100%
[27]
  residual activity: 100%
[28]
  residual activity: 100%
[29]
  residual activity: 100%
[30]
  residual activity: 100%
[31]
  residual activity: 100%
[32]
  residual activity: 100%
[33]
  residual activity: 90%
[34]
  residual activity: 61%
[35]
  residual activity: 100%
[36]
  residual activity: 98%
[37]
  residual activity: 65%
[38]
  residual activity: 100%
[39]
  residual activity: 96%
[40]
  residual activity: 94%
[41]
  residual activity: 83%
[42]
  residual activity: 95%
[43]
  residual activity: 100%
[44]
  residual activity: 100%
[45]
  residual activity: 100%
